{"source": "patent US11040986B2", "about": "“Crystalline forms of cabotegravir sodium” (Sandoz AG, priority 2017, dated 2021)", "key": {"[1]": {"assay": "equilibrium slurry experiments starting from cabotegravir sodium Form A (solvent-mediated phase transformation, PXRD)", "format": "physicochemical", "conditions": "for Result (PXRD): 7 days", "protocol": "[…] After 7 days, the solids were collected by filtration dried under vacuum (30 mbar) at room temperature for 20 hours and analyzed by PXRD.\nPXRD was performed with a PANalytical X'Pert PRO diffractometer equipped with a theta/theta coupled goniometer in transmission geometry, Cu-Kalpha1,2 radiation (wavelength 0.15419 nm) with a focusing mirror and a solid state PIXcel detector. Diffractograms were recorded at a tube voltage of 45 kV and a tube current of 40 mA, applying a stepsize of 0.013° 2-theta with 40 s per step (255 channels) in the angular range of 2° to 40° 2-theta at ambient conditions. A typical precision of the 2-theta values is in the range of ±0.2° 2-Theta, preferably of ±0.1° 2-Theta. Thus, the diffraction peak of cabotegravir sodium Form B that appears for example at 6.8° 2-Theta can appear in the range of from 6.6 to 7.0° 2-Theta, preferably in the range of from 6.7 to 6.9° 2-Theta on most X-ray diffractometers under standard conditions. […]\n[…] The suspension was vigorously stirred at 60° C. using a magnetic stirrer. After 2 days, the solid was collected by filtration dried under vacuum (30 mbar) at room temperature for 20 hours and analyzed by PXRD, which confirmed the receipt of Form C."}, "[2]": {"assay": "competitive slurry experiments with Form A and Form B in 2-butanone", "format": "physicochemical", "conditions": "for Sample 1 after 1 day (solid form) / Sample 2 after 2 days (solid form) / Sample 3 after 6 days (solid form) / Result (solid form after slurrying): 2-butanone; for Result (solid form after slurrying): equal amounts of Form A and Form B", "protocol": "Competitive slurry experiments in 2-butanone were performed by suspending equal amounts of Form A (approximately 50 mg, prepared according to Reference Example 1 herein) and Form B (approximately 50 mg, prepared according to Example 1 herein) in 2-butanone (4 mL) and vigorously stirring the obtained suspension using a magnetic stirrer at 20° C.; 40° C., 60° C. and 80° C. respectively."}}}
{"smiles": "C[C@H]1CO[C@@H]2Cn3cc(C(=O)NCc4ccc(F)cc4F)c(=O)c([O-])c3C(=O)N12.[Na+]", "note": "[Form B, cabotegravir sodium]", "values": [{"measurement": "thermodynamic stability relative to Form A", "setting": "[1]; slurry experiments of Table 1, at least under the tested conditions", "value": "thermodynamically more stable than prior art Form A"}, {"measurement": "thermodynamic stability relative to Form A", "setting": "[2]; competitive slurry in 2-butanone, 20 to 80° C.", "value": "thermodynamically more stable than Form A"}]}
{"smiles": "C[C@H]1CO[C@@H]2Cn3cc(C(=O)NCc4ccc(F)cc4F)c(=O)c([O-])c3C(=O)N12.[Na+]", "note": "[Form A + Form B, cabotegravir sodium]", "values": [{"measurement": "Sample 1 after 1 day (solid form)", "setting": "[2]; 20° C.", "value": "Form B"}, {"measurement": "Sample 2 after 2 days (solid form)", "setting": "[2]; 20° C.", "value": "Form B"}, {"measurement": "Sample 3 after 6 days (solid form)", "setting": "[2]; 20° C.", "value": "Form B"}, {"measurement": "Sample 1 after 1 day (solid form)", "setting": "[2]; 40° C.", "value": "Form B"}, {"measurement": "Sample 2 after 2 days (solid form)", "setting": "[2]; 40° C.", "value": "Form B"}, {"measurement": "Sample 3 after 6 days (solid form)", "setting": "[2]; 40° C.", "value": "Form B"}, {"measurement": "Sample 1 after 1 day (solid form)", "setting": "[2]; 60° C.", "value": "Form B"}, {"measurement": "Sample 2 after 2 days (solid form)", "setting": "[2]; 60° C.", "value": "Form B"}, {"measurement": "Sample 3 after 6 days (solid form)", "setting": "[2]; 60° C.", "value": "Form B"}, {"measurement": "Sample 1 after 1 day (solid form)", "setting": "[2]; 80° C.", "value": "Form B"}, {"measurement": "Sample 2 after 2 days (solid form)", "setting": "[2]; 80° C.", "value": "Form B"}, {"measurement": "Sample 3 after 6 days (solid form)", "setting": "[2]; 80° C.", "value": "Form B"}, {"measurement": "Result (solid form after slurrying)", "setting": "[2]; 20° C.", "value": "Form B"}, {"measurement": "Result (solid form after slurrying)", "setting": "[2]; 40° C.", "value": "Form B"}, {"measurement": "Result (solid form after slurrying)", "setting": "[2]; 60° C.", "value": "Form B"}, {"measurement": "Result (solid form after slurrying)", "setting": "[2]; 80° C.", "value": "Form B"}]}
{"smiles": "C[C@H]1CO[C@@H]2Cn3cc(C(=O)NCc4ccc(F)cc4F)c(=O)c([O-])c3C(=O)N12.[Na+]", "note": "[Form A, cabotegravir sodium]", "values": [{"measurement": "Result (PXRD)", "setting": "[1]; 1,4-dioxane 5 mL, room temperature", "value": "Form B"}, {"measurement": "Result (solid form after slurrying)", "setting": "[1]; 1,4-dioxane, room temperature", "value": "Form B"}, {"measurement": "Result (PXRD)", "setting": "[1]; 2-butanone 5 mL, room temperature", "value": "Form B"}, {"measurement": "Result (solid form after slurrying)", "setting": "[1]; 2-butanone, 20° C.", "value": "Form B"}, {"measurement": "Result (solid form after slurrying)", "setting": "[1]; 2-butanone, 40° C.", "value": "Form B"}, {"measurement": "Result (solid form after slurrying)", "setting": "[1]; 2-butanone, 60° C.", "value": "Form B"}, {"measurement": "Result (solid form after slurrying)", "setting": "[1]; 2-butanone, 80° C.", "value": "Form B"}, {"measurement": "Result (solid form after slurrying)", "setting": "[1]; 2-butanone, room temperature", "value": "Form B"}, {"measurement": "Result (PXRD)", "setting": "[1]; acetone 5 mL, room temperature", "value": "Form B"}, {"measurement": "Result (solid form after slurrying)", "setting": "[1]; acetone, room temperature", "value": "Form B"}, {"measurement": "Result (PXRD)", "setting": "[1]; methyl acetate 5 mL, room temperature", "value": "Form B"}, {"measurement": "Result (solid form after slurrying)", "setting": "[1]; methyl acetate, room temperature", "value": "Form B"}, {"measurement": "solid form by PXRD after slurrying", "setting": "[1]; methylisobutyl ketone 20 mL, 60° C., 2 days", "value": "Form C"}, {"measurement": "Result (solid form after slurrying)", "setting": "[1]; methylisobutyl ketone, 60° C.", "value": "Form C"}, {"measurement": "Result (solid form after slurrying)", "setting": "[1]; methylisobutyl ketone, room temperature", "value": "Form C"}, {"measurement": "Result (PXRD)", "setting": "[1]; tetrahydrofuran 5 mL, room temperature", "value": "Form B"}, {"measurement": "Result (solid form after slurrying)", "setting": "[1]; tetrahydrofuran, room temperature", "value": "Form B"}]}
